Experimental findings from patent publication US9079930B2, “Substituted pyrimidines” (MERCK SHARP & DOHME CORP., priority 2011, dated 2015) are described below.

Structures are written as SMILES. pIC50: −log10 of the molar value.

T1 sequence (Q9GZT9 whole entry): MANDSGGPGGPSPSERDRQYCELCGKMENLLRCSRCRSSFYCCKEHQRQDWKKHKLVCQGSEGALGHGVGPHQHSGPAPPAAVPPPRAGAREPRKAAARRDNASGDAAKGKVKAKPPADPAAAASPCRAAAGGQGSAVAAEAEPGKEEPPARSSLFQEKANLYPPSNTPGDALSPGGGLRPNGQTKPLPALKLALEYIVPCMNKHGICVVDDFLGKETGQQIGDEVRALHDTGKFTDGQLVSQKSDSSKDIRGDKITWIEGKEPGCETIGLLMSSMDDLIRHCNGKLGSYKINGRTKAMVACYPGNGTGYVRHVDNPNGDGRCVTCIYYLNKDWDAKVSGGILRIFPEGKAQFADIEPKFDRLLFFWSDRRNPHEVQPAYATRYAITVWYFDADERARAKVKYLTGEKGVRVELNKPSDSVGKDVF

This assay concerns the target T1, FLAG-tagged full length PHD2 (Homo sapiens, UniProt Q9GZT9).
T1 construct: FLAG-tagged full length PHD2 expressed in and purified from baculovirus-infected Sf9 cells; FLAG; made in house; host or cells: baculovirus-infected Sf9 cells
Nature of the assay: PHD2 inhibition assay (time resolved fluorescence, HIF-1α peptide hydroxylation, VHL complex detection). It counts as biochemical. The note with it: 0.2 μM 2-oxoglutarate, 0.5 μM HIF-1α peptide. The method, then:
To each well of a 96-well plate was added 1 μL of test compound in DMSO and 20 μl of assay buffer (50 mM Tris pH 7.4/0.01% Tween-20/0.1 mg/ml bovine serum albumin/10 μM ferrous sulfate/i mM sodium ascorbate/20 μg/ml catalase) containing 0.15 μg/ml FLAG-tagged full length PHD2 expressed in and purified from baculovirus-infected Sf9 cells. After a 30 min preincubation at room temperature, the enzymatic reactions were initiated by the addition of 4 μL of substrates (final concentrations of 0.2 μM 2-oxoglutarate and 0.5 μM HIF-1α peptide biotinyl-DLDLEMLAPYIPMDDDFQL (SEQ ID NO: 1)). After 2 hr at room temperature, the reactions were terminated and signals were developed by the addition of a 25 μL quench/detection mix to a final concentration of 1 mM ortho-phenanthroline, 0.1 mM EDTA, 0.5 nM anti-(His)6 LANCE reagent (Perkin-Elmer Life Sciences), 100 nM AF647-labeled streptavidin (Invitrogen), and 2 μg/ml (His)6-VHL complex (S. Tan (2001) Protein Expr. Purif. 21, 224-234). The ratio of time resolved fluorescence signals at 665 and 620 nm was determined, and percent inhibition was calculated relative to an uninhibited control sample run in parallel.
For the compound `CCOC(=O)CNP(=O)(NCC(=O)OCC)c1ccc(C(NC(=O)c2cnc(-c3ccccn3)nc2O)c2ccc(OC)cc2)cc1` (stereo not drawn) [Compound 1-1-5, diethyl 2,2′-((4-((4-hydroxy-2-(pyridin-2-yl)pyrimidine-5-carboxamido)(4-methoxyphenyl)methyl)phenyl)phosphoryl)bis(azanediyl)diacetate], the pIC50 – broadly, the IC50 on a negative log10 scale, so that one unit is a factor of ten – was 7.00 to 7.70.
As for `CCOP(=O)(OCC)c1ccc(C(C(=O)Nc2cnc(-n3cccn3)nc2O)C(C)C)cc1` (stereo not drawn) [Compound 13-1, Diethyl 4-(1-(4-hydroxy-2-(1H-pyrazol-1-yl)pyrimidin-5-ylamino)-3-methyl-1-oxobutan-2-yl)phenylphosphonate], the pIC50 was 7.00 to 7.70.
`CCOP(C)(=O)c1ccc(C(NC(=O)c2cnc(-n3cccn3)nc2O)c2ccccc2)cc1` (stereo not drawn) [Compound 8-3, Ethyl 4-((4-hydroxy-2-(1H-pyrazol-1-yl)pyrimidine-5-carboxamido)(phenyl)methyl)phenyl(methyl)phosphinate] gave a negative logarithm of the IC50 (pIC50) of 7.70 to 9.30.
The figure for `CCOP(=O)(OCC)c1ccc(C(C)NC(=O)c2cnc(-c3ccccn3)nc2O)cc1` (stereo not drawn) [Compound 3-1, Diethyl 4-(1-(4-hydroxy-2-(pyridin-2-yl)pyrimidine-5-carboxamido)ethyl)phenyl phosphonate] is 7.00 to 7.70; for `O=C(Cc1cccc(P(=O)(O)O)c1)Nc1cnc(-c2cccnn2)nc1O` [Compound 35-1, 3-(2-(4-hydroxy-2-(pyridazin-3-yl)pyrimidin-5-ylamino)-2-oxoethyl)phenyl phosphonic acid] it is 5.00 to 7.00.
The figure for `CC(NC(=O)c1cnc(-c2ccccn2)nc1O)c1ccc(P(=O)(O)O)cc1` (stereo not drawn) [Compound 3-2, 4-(1-(4-hydroxy-2-(pyridin-2-yl)pyrimidine-5-carboxamido)ethyl)phenylphosphonic acid] is 5.00 to 7.00; for `CC(C)OP(=O)(O)C(NC(=O)c1cnc(-c2ccccn2)nc1O)c1ccccc1` (stereo not drawn) [Compound 6-2, Isopropyl Hydrogen (4-hydroxy-2-(pyridin-2-yl)pyrimidine-5-carboxamido)(phenyl)methylphosphonate] it is 7.00 to 7.70; for `C[C@H](NC(=O)c1cnc(-c2cccnn2)nc1O)c1ccc(P(=O)(O)O)cc1` [Compound 3-7a, (S)-4-(1-(4-hydroxy-2-(pyridazin-3-yl)pyrimidine-5-carboxamido)ethyl)phenylphosphonic acid] it is 5.00 to 7.00.
As to `CCOC(=O)[C@H](C)NP(=O)(N[C@@H](C)C(=O)OCC)c1ccc(C(NC(=O)c2cnc(-c3cccnn3)nc2O)c2ccc(OC)cc2)cc1` (stereo partly drawn) [Compound 31-2, (2S,2′S)-Diethyl 2,2′-((4-((4-hydroxy-2-(pyridazin-3-yl)pyrimidine-5-carboxamido)(4-methoxyphenyl)methyl)phenyl)phosphoryl)bis(azanediyl)dipropanoate], the pIC50 is 7.70 to 9.30.
With `CC(C)(NC(=O)c1cnc(-c2cccnn2)nc1O)c1ccc(-c2ccc(P(=O)(O)O)cc2)nc1` [Compound 33-1, 4-(5-(2-(4-hydroxy-2-(pyridazin-3-yl)pyrimidine-5-carboxamido)propan-2-yl)pyridine-2-yl)phenylphosphonic acid], the pIC50 was 7.70 to 9.30.
The figure for `C[C@@H](NC(=O)c1cnc(-c2ccccn2)nc1O)c1ccc(P(=O)(O)O)cc1` [Compound 3-5, (R)-4-(1-(4-hydroxy-2-(pyridin-2-yl)pyrimidine-5-carboxamido)ethyl)phenylphosphonic acid] is 5.00 to 7.00; for `CCOP(=O)(OCC)C(NC(=O)c1cnc(-n2cccn2)nc1O)c1ccc(OC)cc1` (stereo not drawn) [Compound 10-1, Diethyl (4-hydroxy-2-(1H-pyrazol-1-yl)pyrimidine-5-carboxamido)(4-methoxyphenyl)methylphosphonate] it is 7.70 to 9.30; for `CCOP(=O)(OCC)c1ccc(C(NC(=O)c2cnc(-c3cccnn3)nc2O)c2ccccc2)cc1` (stereo not drawn) [Compound 8-5, Diethyl 4-((4-hydroxy-2-(pyridazin-3-yl)pyrimidine-5-carboxamido)(phenyl)methyl)phenylphosphonate] it is 7.70 to 9.30.
The compound `CP(=O)(O)c1ccc([C@H](NC(=O)c2cnc(-n3cccn3)nc2O)c2ccccc2)cc1` [Compound 23-1, 4-((R)-(4-hydroxy-2-(1H-pyrazol-1-yl)pyrimidine-5-carboxamido)(phenyl)methyl)phenyl(methyl)phosphinic acid] had a pIC50 of 7.70 to 9.30.
For `O=C(NC(c1ccc2ccccc2c1)P(=O)(O)O)c1cnc(-c2cccnn2)nc1O` (stereo not drawn) [Compound 30-3, (4-Hydroxy-2-(pyridazin-3-yl)pyrimidine-5-carboxamido)(naphthalen-2-yl)methyl phosphonic acid] the value was 7.70 to 9.30.
`CCOP(=O)(OCC)c1ccc(C(NC(=O)c2cnc(-c3ccccn3)nc2O)c2ccc(OC)cc2)cc1` (stereo not drawn) [Compound 1-1-1, Diethyl 4-((4-hydroxy-2-(pyridin-2-yl)pyrimidine-5-carboxamido)(4-methoxyphenyl)methyl)phenylphosphonate] had a pIC50 of 7.70 to 9.30.
As for `CCOP(=O)(OCC)c1ccc(C(NC(=O)c2cnc(-c3ccccn3)nc2O)c2ccccc2)cc1` (stereo not drawn) [Compound 2-1, Diethyl 4-((4-hydroxy-2-(pyridin-2-yl)pyrimidine-5-carboxamido)(phenyl)methyl)phenyl phosphonate], the pIC50 was 7.70 to 9.30.
The figure for `C[C@@H](NC(=O)c1cnc(-c2cccnn2)nc1O)c1ccc(P(=O)(O)O)cc1` [Compound 3-5a, (R)-4-(1-(4-hydroxy-2-(pyridazin-3-yl)pyrimidine-5-carboxamido)ethyl)phenylphosphonic acid] is 7.00 to 7.70; for `CCOP(=O)(O)c1ccc(C(NC(=O)c2cnc(-c3ccccn3)nc2O)c2ccccc2)cc1` (stereo not drawn) [Compound 2-3, Ethyl 4-((4-hydroxy-2-(pyridin-2-yl)pyrimidine-5-carboxamido)(phenyl)methyl)phenylphosphonate] it is 7.70 to 9.30; for `CCOP(=O)(OCC)c1ccc(C(NC(=O)c2cnc(-c3ccccn3)nc2O)c2ccccc2)cn1` (stereo not drawn) [Compound 4-1, Diethyl 5-((4-hydroxy-2-(pyridin-2-yl)pyrimidine-5-carboxamido)(phenyl)methyl)pyridin-2-ylphosphonate] it is 7.70 to 9.30.
The figure for `COc1ccc(C(NC(=O)c2cnc(-c3cccnn3)nc2O)c2ccc(CP(=O)(O)O)cc2)cc1` (stereo not drawn) [Compound 32-1, 4-((4-hydroxy-2-(pyridazin-3-yl)pyrimidine-5-carboxamido)(4-methoxyphenyl)methyl)benzylphosphonic acid] is 7.70 to 9.30; for `CCCP(=O)(O)c1ccc(C(NC(=O)c2cnc(-n3cccn3)nc2O)c2ccccc2)cc1` (stereo not drawn) [Compound 16-1, 4-((4-hydroxy-2-(1H-pyrazol-1-yl)pyrimidine-5-carboxamido)(phenyl)methyl)phenyl(propyl)phosphinic acid] it is 7.70 to 9.30; for `CP(=O)(O)c1ccc([C@@H](NC(=O)c2cnc(-n3cccn3)nc2O)c2ccc(F)cc2)cc1` [Compound 19-1, 4-((S)-(4-fluorophenyl)(4-hydroxy-2-(1H-pyrazol-1-yl)pyrimidine-5-carboxamido)methyl)phenyl(methyl)phosphinic acid] it is 7.70 to 9.30.
The figure for `CP(=O)(O)c1ccc([C@@H](NC(=O)c2cnc(-n3cccn3)nc2O)c2ccccc2)cc1` [Compound 22-1, 4-((S)-(4-hydroxy-2-(1H-pyrazol-1-yl)pyrimidine-5-carboxamido)(phenyl)methyl)phenyl(methyl)phosphinic acid] is 7.70 to 9.30; for `C[C@H](NC(=O)c1cnc(-n2cccn2)nc1O)c1ccc(P(=O)(O)O)cc1` [Compound 15-3, (S)-4-(1-(4-hydroxy-2-(1H-pyrazol-1-yl)pyrimidine-5-carboxamido)ethyl)phenylphosphonic acid] it is 5.00 to 7.00; for `CP(=O)(O)c1cccc([C@H](NC(=O)c2cnc(-n3cccn3)nc2O)c2ccccc2)c1` [Compound 24-1, 3-((R)-(4-hydroxy-2-(1H-pyrazol-1-yl)pyrimidine-5-carboxamido)(phenyl)methyl)phenyl(methyl)phosphinic acid] it is 7.70 to 9.30.
For `CP(=O)(O)c1ccc(C(NC(=O)c2cnc(-c3ccccn3)nc2O)c2ccccc2)cc1` (stereo not drawn) [Compound 2-5, 4-((4-hydroxy-2-(pyridin-2-yl)pyrimidine-5-carboxamido)(phenyl)methyl)phenyl(methyl)phosphinic acid], the pIC50 is 7.70 to 9.30.
In turn, `COc1ccc(C(NC(=O)c2cnc(-c3cccnn3)nc2O)c2ccc([PH](=O)O)cc2)cc1` (stereo not drawn) [Compound 9-2, 4-((4-hydroxy-2-(pyridazin-3-yl)pyrimidine-5-carboxamido)(4-methoxyphenyl)methyl)phenylphosphinic acid] had a pIC50 of 7.70 to 9.30.
The compound `COc1ccc(C(NC(=O)c2cnc(-c3ccccn3)nc2O)c2cccc(P(=O)(O)O)c2)cc1` (stereo not drawn) [Compound 5-1, 3-((4-hydroxy-2-(pyridin-2-yl)pyrimidine-5-carboxamido)(4-methoxyphenyl)methyl)phenylphosphonic acid] had a pIC50 of 7.70 to 9.30.
Compound `COc1ccc(C(NC(=O)c2cnc(-c3cccnn3)nc2O)c2cccc(P(=O)(O)O)c2)cc1` (stereo not drawn) [Compound 34-1, 3-((4-hydroxy-2-(pyridazin-3-yl)pyrimidine-5-carboxamido)(4-methoxyphenyl)methyl)phenylphosphonic acid] showed a pIC50 of 7.70 to 9.30.
